Test results as given in patent publication US10813956B2, “Methods for making and using antimicrobial peptides” (REGENTS OF THE UNIVERSITY OF MINNESOTA, priority 2012, dated 2020).
≈ marks a conversion by molar mass, not a printed value. Entries after “also recorded” stand apart in the source; their conditions may differ. Residues, ends and D or L forms follow the SMILES beside them.

Tests used:
E. coli [1] = type: cell-based, Escherichia coli
Experimental: (§1) MICs of the synthetic AMPs were determined in triplicate by a liquid growth inhibition microdilution assays in flat-bottom sterile polypropylene 96-well plates (Maxisorp, Nunc, Roskilde, Denmark), in a final volume of 150 μl. The bacteria were diluted 2% in fresh media and grown to an OD600=0.5±0.05 (OD600=1≈10^9 cells/ml). The cells were diluted 50-fold to 10^7 cells/ml in fresh media. The AMP stocks were serially diluted (150 μl/well) in liquid growth media in a 96-well plate, covering a concentration range of 1,000 μg/ml-1 ng/ml. Briefly, 150 μl of the serially diluted AMPs were inoculated with 5 μl of the bacterial strains to achieve a final indicator concentration of 3×10^5 cells/ml. For each strain a row with no peptide was included as growth control, and for each test a row of medium-only wells was included as a sterility control. Plates were then incubated at 37° C. for 16-20 h without shaking, and growth inhibition was assessed measuring OD600 using a microplate reader (SpectraMax® Plus384; Molecular Devices, Sunnyvale, Calif., USA). MICs were identified as the lowest antimicrobial concentration where the OD600 […].

L. lactis IL1403 = experiment: MIC of synthetic AMPs, liquid growth inhibition microdilution assay; type: cell-based, Lactococcus lactis; settings: synthetic peptide; for L. lactis growth inhibition: all concentrations tested (up to 1 mg/ml)
Experimental: as §1

E. coli [2] = experiment: Antimicrobial activity of supernatants from recombinant L. lactis (CFU/ml and OD600); type: cell-based, Escherichia coli; settings: 6 h post-inoculation; supernatant of recombinant L. lactis; pathogenic and non-pathogenic E. coli
Experimental: (§2) The loss of cell viability was monitored to determine the antimicrobial activity of the supernatants from the recombinant L. lactis strains. Briefly, 0.3 ml of fresh medium, individually inoculated with the target strains, was added to tubes containing 0.7 ml of the supernatants, to reach a final concentration of 1×10^3 cells/ml. As a control, a supernatant sample from the L. lactis strain containing only the expression vector pMSP3545 (C-SN) was used. Tubes were incubated at 37° C. with agitation. Samples were taken at 30 min, 2 and 6 h, and the number of colony forming units per ml (CFU/ml) was determined by plating 25 μl on LB agar plates. The plates were incubated for 16 h at 37° C., and the number of viable cells was assessed by counting CFUs. Additionally, the OD600 was monitored up to 15 h post-inoculation to follow the influence of AMPs on culture growth.
(§3) Growth of pathogenic and non-pathogenic E. coli strains was assessed in medium containing these AMP-SNs while only pathogenic Salmonella strains were tested. In all cases, AMP-SNs diluted 7:3 with LB were inoculated with each indicator strain and growth was monitored spectrophotometrically at 600 nm for 15 hr.

Salmonella = experiment: as above; type: cell-based
Experimental: as §2, §3

S. infantis = experiment: Antimicrobial activity of supernatants from recombinant L. lactis (culture titer); type: cell-based, Salmonella infantis; settings: FIG. 3a; by 2 h post-inoculation
Experimental: as §2, §3

S. typhimurium = experiment: as above; type: cell-based, Salmonella typhimurium; settings: FIG. 3a; by 2 h post-inoculation
Experimental: as §2, §3

| Compound | MIC against indicator E. coli strains (E. coli [1]) | L. lactis growth inhibition (L. lactis IL1403) | Concentration up to which L. lactis remained viable (L. lactis IL1403; highest concentration tested) | E. coli culture density/concentration reduction relative to C-SN (E. coli [2]) | Salmonella growth (rate) reduction relative to C-SN (Salmonella; 10 to 15 h post-inoculation) | S. infantis culture density/growth reduction relative to C-SN (fraction) (S. infantis) | S. typhimurium culture density reduction relative to C-SN (S. typhimurium) | Salmonella growth inhibition at longer times (Salmonella; 10-15 h post-inoculation, versus C-SN) | S. infantis culture density reduction relative to C-SN (S. infantis) |
| --- | --- | --- | --- | --- | --- | --- | --- | --- | --- |
| CC[C@H](C)[C@H](NC(=O)CNC(=O)[C@H](CCCCN)NC(=O)[C@@H](NC(=O)[C@H](CC(C)C)NC(=O)[C@H](CO)NC(=O)CNC(=O)[C@H](CC(C)C)NC(=O)CNC(=O)[C@H](C)NC(=O)[C@H](CCCCN)NC(=O)[C@H](Cc1ccccc1)NC(=O)[C@@H](NC(=O)[C@H](CC(=O)O)NC(=O)[C@H](CCCCN)NC(=O)[C@H](CC(C)C)NC(=O)CN)[C@@H](C)CC)C(C)C)C(=O)N[C@@H](C)C(=O)N[C@@H](C)C(=O)N[C@@H](Cc1c[nH]cn1)C(=O)N[C@H](C(=O)N[C@@H](C)C(=O)N[C@@H](CC(N)=O)C(=O)O)C(C)C [Alyteserin, Alyteserin-1a] (H-GLKDIFKAGLGSLVKGIAAHVAN-OH; N-terminus and C-terminus assumed) | 500 µg/mL (≈ 219 µM) | not achieved | > 1 mg/mL | 20 fold | 15% | about one-half | 10 fold |  |  |
| CC(C)C[C@H](NC(=O)[C@H](Cc1ccc(O)cc1)NC(=O)[C@@H]1CCCN1C(=O)[C@H](CCCNC(=N)N)NC(=O)[C@@H]1CCCN1C(=O)[C@H](CCCCN)NC(=O)[C@H](CC(=O)O)NC(=O)[C@@H]1CCCN1C(=O)[C@@H](N)CCCNC(=N)N)C(=O)N1CCC[C@H]1C(=O)N[C@@H](CCCNC(=N)N)C(=O)N1CCC[C@H]1C(=O)N[C@@H](CCCNC(=N)N)C(=O)N1CCC[C@H]1C(=O)N1CCC[C@H]1C(=O)N[C@@H](CCCNC(=N)N)C(=O)N1CCC[C@H]1C(=O)N[C@H](C(=O)N[C@@H](CCCNC(=N)N)C(=O)O)C(C)C [A3APO, A3APO (single chain)] (H-RPDKPRPYLPRPRPPRPVR-OH; N-terminus and C-terminus assumed) |  | not inhibited; also recorded: not achieved |  |  |  |  | 4 fold | not observed | 20 fold |
